According to ChEMBL document CHEMBL5046231, “Modulation of Naturally Occurring Linear Dipeptide Chirality to Reduce the Affinity for Oligopeptide Transporter 1 and Increase Intestinal Stability for an Enhanced Colon-Targeting Effect in the Treatment of Inflammatory Bowel Disease: An Application of trans-4-l-Hydroxyprolyl-l-serine” (J Med Chem, 2022):
Activity calls are given as the source filed them. The rule behind the calls is not given here.

Tests used:
Jejunum = test: Effective permeability in Sprague-Dawley rat jejunum assessed as fold increase in permeability at 5 mM measured up to 60 mins by HPLC analysis relative to its enantiomers; assay type: ADME, tissue-based; conditions: 1 h, 5000 µM
[1] = Chemical stability in phosphate buffer at pH 6.8 assessed as half life measured up to 12 hrs by HPLC analysis; assay type: physicochemical
[2] = Metabolic stability in healthy C57BL/6 mouse plasma assessed as half life measured up to 12 hrs by HPLC analysis; assay type: ADME, cell-free
Mus musculus [3] = test: Anti-colitis activity against DSS-induced colitis in C57BL/6 mouse model assessed as fold decrease in disease activity index at 25 mg/kg, po administered via gavage twice daily for 10 days relative to control; assay type: functional; conditions: time 10 day
[4] = Stability in simulated gastric fluid at pH 1.2 assessed as half life measured up to 12 hrs by HPLC analysis; assay type: ADME
[5] = Metabolic stability in DSS-induced C57BL/6 mouse jejunum assessed as half life measured up to 12 hrs by HPLC analysis; assay type: ADME, tissue-based
[6] = Metabolic stability in healthy C57BL/6 mouse jejunum assessed as half life measured up to 12 hrs by HPLC analysis; assay type: ADME, tissue-based
[7] = biological target: T1, Solute carrier family 15 member 1 (Homo sapiens, UniProt P46059); test: Substrate activity at PEPT1 in human Caco-2 cells assessed as fold increase in drug uptake by UPLC-MS/MS analysis relative to its enantiomers; assay type: ADME, cell-based
T1 sequence (P46059 whole entry): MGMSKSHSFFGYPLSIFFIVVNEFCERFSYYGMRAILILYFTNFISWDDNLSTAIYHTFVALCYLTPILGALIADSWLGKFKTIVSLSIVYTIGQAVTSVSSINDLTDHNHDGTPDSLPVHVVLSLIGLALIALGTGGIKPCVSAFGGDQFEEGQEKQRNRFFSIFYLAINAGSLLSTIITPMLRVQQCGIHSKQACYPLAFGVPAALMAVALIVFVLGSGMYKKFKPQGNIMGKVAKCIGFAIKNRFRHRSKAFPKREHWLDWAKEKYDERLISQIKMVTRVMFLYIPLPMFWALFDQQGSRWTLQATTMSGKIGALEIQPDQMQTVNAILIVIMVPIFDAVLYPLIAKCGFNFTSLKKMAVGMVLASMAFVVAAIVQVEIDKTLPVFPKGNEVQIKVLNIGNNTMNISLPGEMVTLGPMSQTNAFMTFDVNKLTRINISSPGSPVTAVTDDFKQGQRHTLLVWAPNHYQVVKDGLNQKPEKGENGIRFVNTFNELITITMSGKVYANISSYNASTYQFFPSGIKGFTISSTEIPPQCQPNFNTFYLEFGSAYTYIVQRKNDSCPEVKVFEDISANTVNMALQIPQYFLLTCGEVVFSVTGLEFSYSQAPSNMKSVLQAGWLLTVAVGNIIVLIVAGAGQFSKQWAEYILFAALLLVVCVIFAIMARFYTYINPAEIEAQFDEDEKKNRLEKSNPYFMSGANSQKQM

[8] = biological target: T2, Solute carrier family 15 member 1 (Rattus norvegicus, UniProt P51574); test: Substrate activity in PEPT1 in Sprague-Dawley rat jejunum assessed as fold increase in effective permeability at 5 mM measured up to 60 mins in presence of Gly-Sar by HPLC analysis relative to its enantiomers; assay type: ADME, tissue-based; conditions: 1 h, 5000 µM
T2 sequence (P51574 whole entry): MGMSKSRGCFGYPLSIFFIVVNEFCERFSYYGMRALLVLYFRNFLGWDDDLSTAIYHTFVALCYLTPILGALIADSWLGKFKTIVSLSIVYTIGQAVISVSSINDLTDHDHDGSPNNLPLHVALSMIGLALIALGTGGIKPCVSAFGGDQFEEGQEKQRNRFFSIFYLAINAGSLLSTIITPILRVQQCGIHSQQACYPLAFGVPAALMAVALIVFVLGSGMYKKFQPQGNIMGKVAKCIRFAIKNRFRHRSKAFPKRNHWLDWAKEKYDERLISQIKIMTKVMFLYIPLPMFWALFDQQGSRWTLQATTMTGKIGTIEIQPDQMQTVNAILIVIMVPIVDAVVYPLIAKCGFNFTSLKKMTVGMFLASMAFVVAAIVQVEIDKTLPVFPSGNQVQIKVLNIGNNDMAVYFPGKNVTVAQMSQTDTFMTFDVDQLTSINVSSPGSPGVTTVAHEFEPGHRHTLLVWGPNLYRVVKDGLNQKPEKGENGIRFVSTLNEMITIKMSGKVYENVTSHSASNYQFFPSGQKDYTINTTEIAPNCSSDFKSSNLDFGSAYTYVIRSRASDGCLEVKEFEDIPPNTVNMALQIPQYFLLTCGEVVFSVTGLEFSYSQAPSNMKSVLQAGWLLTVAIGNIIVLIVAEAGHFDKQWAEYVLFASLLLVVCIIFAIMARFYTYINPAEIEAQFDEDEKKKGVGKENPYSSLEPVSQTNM

[9] = Chemical stability in acetate buffer at pH 4.5 assessed as half life measured up to 12 hrs by HPLC analysis; assay type: physicochemical
[10] = Metabolic stability in DSS-induced C57BL/6 mouse colon assessed as half life measured up to 12 hrs by HPLC analysis; assay type: ADME, tissue-based
[11] = biological target: T1, Solute carrier family 15 member 1; test: Substrate activity at PEPT1 in human Caco-2 cells assessed as fold reduction in drug uptake in presence of Gly-Sar by UPLC-MS/MS analysis relative to its enantiomers; assay type: ADME, cell-based
[12] = Metabolic stability in healthy C57BL/6 mouse liver assessed as half life measured up to 12 hrs by HPLC analysis; assay type: ADME, tissue-based
[13] = Metabolic stability in healthy C57BL/6 mouse colonic flora homogenate assessed as half life measured up to 12 hrs by HPLC analysis; assay type: ADME
[14] = Chemical stability in phosphate buffer at pH 7.2 assessed as half life measured up to 12 hrs by HPLC analysis; assay type: physicochemical
[15] = Stability in simulated intestinal fluid at pH 6.8 assessed as half life measured up to 12 hrs by HPLC analysis; assay type: ADME
[16] = Apparent permeability across apical to basolateral side in human Caco-2 cells assessed as fold increase in permeability at 0.5 mM measured up to 60 mins by UPLC-MS/MS analysis relative to its enantiomers; assay type: ADME, cell-based; conditions: caco-2, 1 h, 500 µM
[17] = AUC (0 to 6 hrs) in DSS-induced colitis C57BL/6 mouse model at 25 mg/kg, po measured up to 6 hrs by UPLC-MS/MS analysis; assay type: ADME, organism-based; parameters: route oral, dose 25 mg/kg, time <=6; conditions: in vivo
[18] = Tmax in DSS-induced colitis C57BL/6 mouse model at 25 mg/kg, po measured up to 6 hrs by UPLC-MS/MS analysis; assay type: ADME, organism-based; conditions: in vivo
[19] = Metabolic stability in DSS-induced C57BL/6 inflammatory mouse model colonic flora homogenate assessed as half life measured up to 12 hrs by HPLC analysis; assay type: ADME; conditions: C57BL/6, mouse
Mus musculus [20] = test: Anti-colitis activity against DSS-induced colitis in C57BL/6 mouse model assessed as assessed as recovery of body weight at 25 mg/kg, po administered via gavage twice daily for 10 days; assay type: functional, organism-based; conditions: time 10.0 day
Mus musculus [21] = test: Anti-colitis activity against DSS-induced colitis in C57BL/6 mouse model assessed as increase in colon length at 25 mg/kg, po administered via gavage twice daily for 10 days; assay type: functional, organism-based; conditions: time 10.0 day
[22] = biological target: T1, Solute carrier family 15 member 1; test: Substrate activity at PEPT1 in human Caco-2 cells assessed as inhibition of Gly-Sar substrate uptake by UPLC-MS/MS analysis; assay type: cell-based; conditions: for inhibition (INH): human, caco-2
[23] = Cmax in DSS-induced colitis C57BL/6 mouse model at 25 mg/kg, po measured up to 6 hrs by UPLC-MS/MS analysis; assay type: ADME, organism-based; parameters: route oral, dose 25 mg/kg, time <=6; conditions: in vivo
[24] = Chemical stability in 0.1 M HCl at pH 1.2 assessed as half life measured up to 12 hrs by HPLC analysis; assay type: physicochemical
[25] = Metabolic stability in healthy C57BL/6 mouse colon assessed as half life measured up to 12 hrs by HPLC analysis; assay type: ADME, tissue-based
[26] = Stability in human Caco-2 cells homogenate assessed as half life measured up to 12 hrs by HPLC analysis; assay type: ADME, cell-based; conditions: Caco-2 cell homogenate

Compound | half-life [1] [h] | half-life [2] [h] | half-life [4] [h] | half-life [5] [h] | half-life [6] [h] | half-life [9] [h] | half-life [10] [h] | half-life [12] [h] | half-life [13] [h] | half-life [14] [h] | half-life [15] [h] | AUC [17] [microM/L.hr] | Tmax [18] [h] | half-life [19] [h] | Activity (Mus musculus [20]) | Activity (Mus musculus [21]) | Cmax [23] [µM] | half-life [24] [h] | half-life [25] [h] | half-life [26] [h] | also measured
O=C(O)[C@H](CO)NC(=O)[C@@H]1C[C@@H](O)CN1 | > 12 | > 12 | > 12 | 0.29 | 0.35 | > 12 | > 12 | 0.27 | 0.86 | > 12 | > 12 | 1.34 | 2 | 0.88 | Active | Active | 0.52 | > 12 | > 12 | > 12 | fold change (FC) (Jejunum): 7.3; fold change (FC) (Mus musculus [3]): 1.5; fold change (FC) [7]: 3.3; fold change (FC) [8]: 7.8; fold change (FC) [11]: 3.4; fold change (FC) [16]: 6.3; IC50 [22]: 5.18 mM
O=C(N[C@H](CO)C(=O)O)[C@@H]1C[C@@H](O)CN1 | > 12 | > 12 | > 12 | 0.39 | 0.33 | > 12 | > 12 | 0.32 | 0.91 | > 12 | > 12 | 1.67 | 2 | 0.99 | Active | Active | 0.64 | > 12 | > 12 | > 12 | fold change (FC) (Jejunum): 7.3; fold change (FC) (Mus musculus [3]): 1.5; fold change (FC) [7]: 3.3; fold change (FC) [8]: 4.6; fold change (FC) [11]: 3.4; fold change (FC) [16]: 6.3; IC50 [22]: 10.2 mM
O=C(O)[C@H](CO)NC(=O)[C@@H]1C[C@H](O)CN1 | > 12 | > 12 | > 12 | 0.35 | 0.39 | > 12 | > 12 | 0.51 | 1.22 | > 12 | > 12 | 1.62 | 2 | 1.15 | inactive | inactive | 1.05 | > 12 | > 12 | > 12 | fold change (FC) (Jejunum): 7.3; fold change (FC) [7]: 3.3; fold change (FC) [8]: 4; fold change (FC) [11]: 3.4; fold change (FC) [16]: 6.3; IC50 [22]: 9.8 mM
O=C(N[C@H](CO)C(=O)O)[C@@H]1C[C@H](O)CN1 | > 12 | > 12 | > 12 | > 12 | > 12 | > 12 | > 12 | > 12 | > 12 | > 12 | > 12 | 49.92 | 4 | > 12 | inactive | inactive | 22.1 | > 12 | > 12 | > 12 | inhibition (INH) [22]: Not Active
O=C(O)[C@@H](CO)NC(=O)[C@H]1C[C@H](O)CN1 | > 12 | > 12 | > 12 | > 12 | > 12 | > 12 | > 12 | > 12 | > 12 | > 12 | > 12 | 50.73 | 4 | > 12 | Active | Active | 22.9 | > 12 | > 12 | > 12 | fold change (FC) (Mus musculus [3]): 1.5; fold change (FC) [7]: 3.3; inhibition (INH) [22]: Not Active
O=C(O)[C@H](CO)NC(=O)[C@H]1C[C@H](O)CN1 | > 12 | > 12 | > 12 | > 12 | > 12 | > 12 | > 12 | > 12 | > 12 | > 12 | > 12 | 8.55 | 2 | > 12 | inactive | inactive | 4.01 | > 12 | > 12 | > 12 | fold change (FC) (Jejunum): 7.3; fold change (FC) [7]: 3.3; fold change (FC) [8]: 6.2; fold change (FC) [11]: 3.4; fold change (FC) [16]: 6.3; IC50 [22]: 9.6 mM
O=C(O)[C@H](CO)NC(=O)[C@H]1C[C@@H](O)CN1 | > 12 | > 12 | > 12 | > 12 | > 12 | > 12 | > 12 | > 12 | > 12 | > 12 | > 12 | 44.55 | 4 | > 12 | inactive | inactive | 22.7 | > 12 | > 12 | > 12 | inhibition (INH) [22]: Not Active
